# Experimental data from patent US7598234B2, “Steroid derived antibiotics” (Brigham Young University, priority 1998, dated 2009).
# How the values were obtained:
# [1] = system: E. coli (ATCC 25922); assay: Sensitization to erythromycin, E. coli (ATCC 25922); type: cell-based, Escherichia coli; settings: for MIC: concentration required to lower the MIC of erythromycin from 60 μg/mL to 1 μg/mL / MBC (with erythromycin): Table 5, E. coli (ATCC 25922); for MBC (with erythromycin): erythromycin sensitization; for FIC / concentration required to inhibit bacterial growth with antibiotic: Table 11, Escherichia coli ATCC 25922; for FIC: erythromycin (by order); for concentration required to inhibit bacterial growth with antibiotic: erythromycin (by order) at 0.5, 1.0 or 3.0 μg/mL
# Summary of the method: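 Bacteria grown in TSB with varied cholic acid derivative concentrations; erythromycin (0.5, 1.0 or 3.0 μg/mL) added 15 min later; stationary incubation 37° C, 24 h. Growth read as absorbance at 760 nm, with clear samples subcultured on TSA for CFU/mL; derivative concentration inhibiting growth determined.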
# [2] = Protocol: Minimum inhibition concentrations (MIC) and minimum hemolytic concentrations (MHC) were measured as described in Li et al., Antimicrob. Agents. Chemother., 1999, 43, 1347.
# [3] = system: Salmonella typhimurium ATCC 14028; assay: Growth inhibition and FIC with rifampicin, Salmonella typhimurium ATCC 14028; type: cell-based; settings: Table 13, Salmonella typhimurium ATCC 14028^b; for FIC: rifampicin (by order); for concentration required to inhibit bacterial growth with antibiotic: rifampicin (by order) at 0.5, 1.0 or 3.0 μg/mL
# Protocol: Alternatively, “fractional inhibitory concentration (FIC)” is also useful for determination of synergy between the compounds of the invention, or the compounds in combination with known antibiotics. FICs can be performed by checkerboard titrations of compounds in one dimension of a microtiter plate, and of antibiotics in the other dimension, for example. The FIC is calculated by looking at the impact of one antibiotic on the MIC of the other and vice versa. […] Preferably, an FIC of less than 0.5 is obtained for synergism. As used herein, FIC can be determined as follows:
# (§1) Aliquots of 1 mL of the suspension were added to test tubes containing 1 mL TSB and incrementally varied concentrations of cholic acid derivatives and/or erythromycin or novobiocin. In the sensitization experiments, erythromycin or novobiocin were added 15 minutes later than the cholic acid derivatives. The samples were subjected to stationary incubation at 37° C. for 24 hours. Sample turbidity was determined by measuring absorption at 760 nm (HP 8453 UV-Visible Chemstation, Hewlett Packard). Additionally, an alliquot from each of the samples showing no measurable turbidity was subcultured on TSA plates (alliquots were diluted to provide fewer than 300 CFU). Colonies that grew on the subculture after overnight incubation were counted and the number of CFU/mL in the samples were calculated. The calculated values were compared to the number of CFU/mL in the original inoculum.
# To measure permeabilization, the FIC values for compounds 1, 2, 5, 106, 10, 112, 133, and 134 with erythromycin, novobiocin, and rifampicin were determined. Concentrations of 0.5, 1.0 or 3.0 μg/mL of these antibiotics were used, and the concentrations of the cholic acid derivatives required to inhibit bacterial growth of Gram-negative strains were determined.
# [4] = system: E. coli (ATCC 10798); assay: MIC and MBC measurement with E. coli (ATCC 10798); type: cell-based, Escherichia coli
# Summary of the method: (§2)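 Broth macrodilution, TSB, 37° C./24 h stationary; MIC by absence of A760 turbidity, MBC by TSA subculture CFU/mL against starting inoculum.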
# [5] = system: Candida albicans ATCC 90028; assay: MIC and MBC measurement with Candida albicans ATCC 90028; type: cell-based; settings: Table 10
# From the text: (§3) General: Microorganisms. Reference strains were purchased from the American Type Culture Collection (Rockville, Md.) or Bactrol disks from Difeo Laboratories (Detroit, Mich.). The following specific ATCC strains were used: 10798 Escherichia coli, 25922 Escherichia coli, 13883 Klebsiella pneumoniae, 27853 Pseudomonas aeruginosa, 14028 Salmonella typhimurium, 29212 Enterococcus faecalis, 25923 Staphylococcus aureus, 19615 Streptococcus pyogenes, and 90028 Candida albicans. Bacterial strains were maintained on Mueller-Hinton agar plates, and Candida albicans was maintained on Sabouraud Dextrose agar plates.
# (§4) Tryptic soy broth (TSB) was made by dissolving 27.5 grams of tryptic soy broth without dextrose (DIFCO Laboratories) in 1 liter of deionized water and sterilizing at 121° C. for 15 minutes. Solid agar (TSA) plates were made by dissolving 6.4 grams of tryptic soy broth and 12 grams of agar (purified grade, Fischer Scientific) in 800 mL of deionized water and sterilizing at 121° C. for 20 minutes. Aliquots (20 mL) of the homogeneous solution were then poured in sterile plastic petri dishes (100×15 mm, Fisher Scientific). Solutions of compounds were made by dissolving the HCl salt of the respective compound into an appropriate amount of deionized and sterilized water followed by microfiltration.
# as §1
# [6] = system: Enterococcus faecalis ATCC 29212; assay: MIC and MBC measurement with Enterococcus faecalis ATCC 29212; type: cell-based; settings: Table 10
# From the text: as §3, §4, §1
# [7] = system: Salmonella typhimurium ATCC 14028; assay: MIC and MBC measurement with Salmonella typhimurium ATCC 14028; type: cell-based; settings: Table 10
# Summary of the method: as §2
# [8] = system: E. coli containing an inducible luciferase coding plasmid; assay: Luciferin/luciferase-based permeabilization / cell lysis assay; parameters: species or system Escherichia coli; settings: permeabilization of the outer membrane allowing luciferin to enter the cell
# Protocol: Using a technique described by J. M. Shupp, S. E. Travis, L. B. Price, R. F. Shand, P. Keim, RAPID BACTERIAL PERMEABILIZATION REAGENT USEFUL FOR ENZYME ASSAYS, Biotechniques, 1995, vol.
# In this assay, E. coli containing an inducible luciferase coding plasmid was incubated with the inducing agent […], then treated with a lysis buffer containing either PMB or one of the cholic acid derivatives, and Triton X-100. Luciferin and ATP were then added. […] The concentrations of the membrane disrupting agents (PMB and the cholic acid derivatives) were varied, and the resulting luminescence was measured.
# [9] = Table 9, Escherichia coli (ATCC 10798)
Compound,MIC: concentration required to lower the MIC of erythromycin from 60 μg/mL to 1 μg/mL [1] [µg/mL],MBC (with erythromycin) [1] [µg/mL],FIC [1],concentration required to inhibit bacterial growth with antibiotic [1] [µg/mL],MHC [2] [µg/mL],FIC [3],concentration required to inhibit bacterial growth with antibiotic [3] [µg/mL],"MBC ([4]; Table 1, E. coli (ATCC 10798)) [µg/mL]","MIC ([4]; Table 1, E. coli (ATCC 10798)) [µg/mL]",MBC [5] [µg/mL],MIC [5] [µg/mL],MBC [6] [µg/mL],MIC [6] [µg/mL],MBC [7] [µg/mL],MIC [7] [µg/mL],half maximum luminescence [8] [µg/mL],"MBC [4, 9] [µg/mL]","MIC [4, 9] [µg/mL]"
C[C@H](CCCN(C)Cc1ccccc1)[C@H]1CC[C@H]2[C@@H]3[C@H](OCCN)C[C@@H]4C[C@H](OCCN)CC[C@]4(C)[C@H]3C[C@H](OCCN)[C@]12C [Compound 1],2,14,0.15,2.5,78,0.089,0.84,34,20,>50,49,50,4.9,>25,21,,,
C[C@H](CCCN(C)Cc1ccccc1)[C@H]1CC[C@H]2[C@@H]3[C@H](OCCCN)C[C@@H]4C[C@H](OCCCN)CC[C@]4(C)[C@H]3C[C@H](OCCCN)[C@]12C [Compound 2],1,5,0.078,0.23,58,0.079,0.39,16,7,42,30,19,3.4,16,13,7,,
C[C@]12CC[C@@H](OCCCN)C[C@H]1C[C@@H](OCCCN)[C@@H]1[C@@H]2C[C@H](OCCCN)[C@]2(C)[C@@H](O)CC[C@@H]12 [Compound 106],,,0.073,3.2,>100,0.064,1.4,,,92,75,>100,12,>100,>100,,>200,140
CCCOCCC[C@@H](C)[C@H]1CC[C@H]2[C@@H]3[C@H](OCCCN)C[C@@H]4C[C@H](OCCCN)CC[C@]4(C)[C@H]3C[C@H](OCCCN)[C@]12C [Compound 112],,,0.12,0.59,5.9,0.051,0.10,,,45,41,4.7,3.1,90,86,,17,12
